# Assay results published in patent publication US20260007681A1, “INDOLE DERIVATIVES AS ESTROGEN RECEPTOR DEGRADERS” (REGENTS OF THE UNIVERSITY OF MICHIGAN, priority 2022, published 2026).
# Target: ER (Homo sapiens (Human), UniProt P03372)
# Assay: Western blot analysis (Compounds B1-B278)
# Assay type: cell-based
# Conditions: ER degradation by traditional Western blot; DC50 classes
# Outline: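 Compound-treated cells were lysed in RIPA buffer (Tris.HCl pH 7.6, 1% NP-40, deoxycholate, 0.1% SDS) with protease inhibitors; equal protein was resolved on 10% SDS-PAGE, transferred to PVDF and immunoblotted. Band intensities were quantified and normalized to GAPDH.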
# Chain of ER (P03372 whole entry): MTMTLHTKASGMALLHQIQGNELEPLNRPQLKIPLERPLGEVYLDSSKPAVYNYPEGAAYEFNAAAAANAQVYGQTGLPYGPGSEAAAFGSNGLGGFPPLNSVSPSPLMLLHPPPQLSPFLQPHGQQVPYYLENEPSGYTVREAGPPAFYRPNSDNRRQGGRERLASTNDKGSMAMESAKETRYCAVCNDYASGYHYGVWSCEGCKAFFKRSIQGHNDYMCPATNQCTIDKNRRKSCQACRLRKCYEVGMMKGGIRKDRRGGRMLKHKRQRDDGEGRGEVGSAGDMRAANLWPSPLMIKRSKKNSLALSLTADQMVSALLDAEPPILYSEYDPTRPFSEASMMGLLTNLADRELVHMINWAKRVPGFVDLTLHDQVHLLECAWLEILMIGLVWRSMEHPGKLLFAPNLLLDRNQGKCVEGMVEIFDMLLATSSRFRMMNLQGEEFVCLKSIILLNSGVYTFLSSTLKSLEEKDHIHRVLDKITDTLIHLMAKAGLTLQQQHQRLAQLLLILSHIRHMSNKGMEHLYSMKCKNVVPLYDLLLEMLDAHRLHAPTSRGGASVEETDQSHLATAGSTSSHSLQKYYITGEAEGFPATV
row,SMILES,Traditional Western Degradation Potency
1,"C[C@@H]1Cc2c([nH]c3ccccc23)[C@@H](c2c(F)cc(N3CC4(CCN4CC(=O)N4Cc5cc6c(cc5C4)C(=O)N(C4CCC(=O)NC4=O)C6=O)C3)cc2F)N1CC(F)F (stereo partly drawn) [Compound B191, 6-(2-(6-(4-((1R,3R)-2-(2,2-difluoroethyl)-3-methyl-2,3,4,9-tetrahydro-1H-pyrido[3,4-b]indol-1-yl)-3,5-difluorophenyl)-1,6-diazaspiro[3.3]heptan-1-yl)acetyl)-2-(2,6-dioxopiperidin-3-yl)-6,7-dihydropyrrolo[3,4-f]isoindole-1,3(2H,5H)-dione]",C (“C”: >100 nM)
2,"C[C@@H]1Cc2c([nH]c3ccccc23)[C@@H](c2c(F)cc(N3CC4(CCN4CC(=O)N4Cc5cc6c(cc5C4)C(=O)N(C4CCC(=O)NC4=O)C6)C3)cc2F)N1CC(F)F (stereo partly drawn) [Compound B192, 3-(6-(2-(6-(4-((1R,3R)-2-(2,2-difluoroethyl)-3-methyl-2,3,4,9-tetrahydro-1H-pyrido[3,4-b]indol-1-yl)-3,5-difluorophenyl)-1,6-diazaspiro[3.3]heptan-1-yl)acetyl)-1-oxo-3,5,6,7-tetrahydropyrrolo[3,4-f]isoindol-2(1H)-yl)piperidine-2,6-dione]",C (“C”: >100 nM)
3,"C[C@@H]1Cc2c([nH]c3ccccc23)[C@@H](c2c(F)cc(N3CCC4(CCN(CC(=O)N5Cc6cc7c(cc6C5)C(=O)N(C5CCC(=O)NC5=O)C7=O)C4)CC3)cc2F)N1CC(F)F (stereo partly drawn) [Compound B193, 6-(2-(8-(4-((1R,3R)-2-(2,2-difluoroethyl)-3-methyl-2,3,4,9-tetrahydro-1H-pyrido[3,4-b]indol-1-yl)-3,5-difluorophenyl)-2,8-diazaspiro[4.5]decan-2-yl)acetyl)-2-(2,6-dioxopiperidin-3-yl)-6,7-dihydropyrrolo[3,4-f]isoindole-1,3(2H,5H)-dione]",A (“A”: <10 nM)
4,"C[C@@H]1Cc2c([nH]c3ccccc23)[C@@H](c2c(F)cc(N3CCC4(CCN(CC(=O)N5Cc6cc7c(cc6C5)C(=O)N(C5CCC(=O)NC5=O)C7)C4)CC3)cc2F)N1CC(F)F (stereo partly drawn) [Compound B194, 3-(6-(2-(8-(4-((1R,3R)-2-(2,2-difluoroethyl)-3-methyl-2,3,4,9-tetrahydro-1H-pyrido[3,4-b]indol-1-yl)-3,5-difluorophenyl)-2,8-diazaspiro[4.5]decan-2-yl)acetyl)-1-oxo-3,5,6,7-tetrahydropyrrolo[3,4-f]isoindol-2(1H)-yl)piperidine-2,6-dione]",A (“A”: <10 nM)
5,"C[C@@H]1Cc2c([nH]c3ccccc23)[C@@H](c2c(F)cc(N3CCC4(CCN(C(=O)CN5Cc6cc7c(cc6C5)C(=O)N(C5CCC(=O)NC5=O)C7)C4)CC3)cc2F)N1CC(F)F (stereo partly drawn) [Compound B195, 3-(6-(2-(8-(4-((1R,3R)-2-(2,2-difluoroethyl)-3-methyl-2,3,4,9-tetrahydro-1H-pyrido[3,4-b]indol-1-yl)-3,5-difluorophenyl)-2,8-diazaspiro[4.5]decan-2-yl)-2-oxoethyl)-1-oxo-3,5,6,7-tetrahydropyrrolo[3,4-f]isoindol-2(1H)-yl)piperidine-2,6-dione]",A (“A”: <10 nM)
6,"C[C@@H]1Cc2c([nH]c3ccccc23)[C@@H](c2c(F)cc(N3CC[C@@H](CN4CCC(C(=O)N5Cc6cc7c(cc6C5)C(=O)N(C5CCC(=O)NC5=O)C7)CC4)C3)cc2F)N1CC(F)F (stereo partly drawn) [Compound B196, 3-(6-(1-(((S)-1-(4-((1R,3R)-2-(2,2-difluoroethyl)-3-methyl-2,3,4,9-tetrahydro-1H-pyrido[3,4-b]indol-1-yl)-3,5-difluorophenyl)pyrrolidin-3-yl)methyl)piperidine-4-carbonyl)-1-oxo-3,5,6,7-tetrahydropyrrolo[3,4-f]isoindol-2(1H)-yl)piperidine-2,6-dione]",A (“A”: <10 nM)
7,"C[C@@H]1Cc2c([nH]c3ccccc23)[C@@H](c2c(F)cc(N3CC[C@@H](CN4CCC(C(=O)N5Cc6cc7c(cc6C5)C(=O)N(C5CCC(=O)NC5=O)C7=O)CC4)C3)cc2F)N1CC(F)F (stereo partly drawn) [Compound B197, 6-(1-(((S)-1-(4-((1R,3R)-2-(2,2-difluoroethyl)-3-methyl-2,3,4,9-tetrahydro-1H-pyrido[3,4-b]indol-1-yl)-3,5-difluorophenyl)pyrrolidin-3-yl)methyl)piperidine-4-carbonyl)-2-(2,6-dioxopiperidin-3-yl)-6,7-dihydropyrrolo[3,4-f]isoindole-1,3(2H,5H)-dione]",A (“A”: <10 nM)
8,"C[C@@H]1Cc2c([nH]c3ccccc23)[C@@H](c2c(F)cc(N3CCC4(CCN(C(=O)CN5Cc6cc7c(cc6C5)C(=O)N(C5CCC(=O)NC5=O)C7=O)CC4)CC3)cc2F)N1CC(F)(F)F (stereo partly drawn) [Compound B199, 6-(2-(9-(3,5-difluoro-4-((1R,3R)-3-methyl-2-(2,2,2-trifluoroethyl)-2,3,4,9-tetrahydro-1H-pyrido[3,4-b]indol-1-yl)phenyl)-3,9-diazaspiro[5.5]undecan-3-yl)-2-oxoethyl)-2-(2,6-dioxopiperidin-3-yl)-6,7-dihydropyrrolo[3,4-f]isoindole-1,3(2H,5H)-dione]",B (“B”: 10-100 nM)
9,"C[C@@H]1Cc2c([nH]c3ccccc23)[C@@H](c2c(F)cc(N3CCC4(CC3)CN(C(=O)CN3Cc5cc6c(cc5C3)C(=O)N(C3CCC(=O)NC3=O)C6=O)C4)cc2F)N1CC(F)(F)F (stereo partly drawn) [Compound B200, 6-(2-(7-(3,5-difluoro-4-((1R,3R)-3-methyl-2-(2,2,2-trifluoroethyl)-2,3,4,9-tetrahydro-1H-pyrido[3,4-b]indol-1-yl)phenyl)-2,7-diazaspiro[3.5]nonan-2-yl)-2-oxoethyl)-2-(2,6-dioxopiperidin-3-yl)-6,7-dihydropyrrolo[3,4-f]isoindole-1,3(2H,5H)-dione]",B (“B”: 10-100 nM)
10,"C[C@@H]1Cc2c([nH]c3ccccc23)[C@@H](c2c(F)cc(N3CCC(C(=O)N4CCC(N5Cc6cc7c(cc6C5)C(=O)N(C5CCC(=O)NC5=O)C7=O)CC4)CC3)cc2F)N1CC(F)(F)F (stereo partly drawn) [Compound B201, 6-(1-(1-(3,5-difluoro-4-((1R,3R)-3-methyl-2-(2,2,2-trifluoroethyl)-2,3,4,9-tetrahydro-1H-pyrido[3,4-b]indol-1-yl)phenyl)piperidine-4-carbonyl)piperidin-4-yl)-2-(2,6-dioxopiperidin-3-yl)-6,7-dihydropyrrolo[3,4-f]isoindole-1,3(2H,5H)-dione]",B (“B”: 10-100 nM)
11,"C[C@@H]1Cc2c([nH]c3ccccc23)[C@@H](c2c(F)cc(N3CC(C(=O)N4CC(N5Cc6cc7c(cc6C5)C(=O)N(C5CCC(=O)NC5=O)C7=O)C4)C3)cc2F)N1CC(F)F (stereo partly drawn) [Compound B202, 6-(1-(1-(4-((1R,3R)-2-(2,2-difluoroethyl)-3-methyl-2,3,4,9-tetrahydro-1H-pyrido[3,4-b]indol-1-yl)-3,5-difluorophenyl)azetidine-3-carbonyl)azetidin-3-yl)-2-(2,6-dioxopiperidin-3-yl)-6,7-dihydropyrrolo[3,4-f]isoindole-1,3(2H,5H)-dione]",B (“B”: 10-100 nM)
